The values that follow come from paper doi:10.1101/2020.02.10.936898v1 (biorxiv, 2020).

Each structure is given as a SMILES string. Where only a bound is given, the exact number is not on record here.

The experiment concerns the target SARS-CoV M^pro (Severe acute respiratory syndrome-related coronavirus, UniProt P0C6X7). Kind of experiment: biochemical. The class given is biochemical.
For orientation: IC50 means the concentration at which inhibition is half-maximal. Lower therefore signals higher potency. Consider `O=C(/C=C/c1ccccc1)N[C@@H](Cc1ccc(F)cc1)C(=O)N[C@@H](C[C@@H]1CCNC1=O)C(=O)C(=O)NCc1ccccc1` [11m, (S)-N-benzyl-3-((S)-2-cinnamamido-3-(4-fluorophenyl)propanamido)-2-oxo-4-((S)-2-oxopyrrolidin-3-yl)butanamide], for which the IC50 was > 50000 nM.

In turn, `O=C(/C=C/c1ccccc1)N[C@@H](CC1CCC1)C(=O)N[C@@H](C[C@@H]1CCNC1=O)C(=O)C(=O)NCc1ccccc1` [11t, (S)-N-benzyl-3-((S)-2-cinnamamido-3-cyclobutylpropanamido)-2-oxo-4-((S)-2-oxopyrrolidin-3-yl)butanamide] displayed an IC50 of 1440 ± 400 nM. As to `O=C(/C=C/c1ccccc1)N[C@@H](CC1CCCCC1)C(=O)N[C@@H](C[C@@H]1CCNC1=O)C(=O)C(=O)NCc1ccccc1` [11r, (S)-N-benzyl-3-((S)-2-cinnamamido-3-cyclohexylpropanamido)-2-oxo-4-((S)-2-oxopyrrolidin-3-yl)butanamide], the IC50 came to 710 ± 360 nM. `CCCC[C@H](NC(=O)/C=C/c1ccccc1)C(=O)N[C@@H](C[C@@H]1CCNC1=O)C(=O)C(=O)NCc1ccccc1` [11o, (S)-N-((S)-4-(benzylamino)-3,4-dioxo-1-((S)-2-oxopyrrolidin-3-yl)butan-2-yl)-2-cinnamamidohexanamide] had an IC50 of 8500 ± 3710 nM. Then `O=C(/C=C/c1ccccc1)N[C@@H](Cc1ccccc1)C(=O)N[C@@H](C[C@@H]1CCNC1=O)C(=O)C(=O)NCc1ccccc1` [11a, (S)-N-benzyl-3-((S)-2-cinnamamido-3-phenylpropanamido)-2-oxo-4-((S)-2-oxopyrrolidin-3-yl)butanamide], with 1950 ± 240 nM; and `O=C(/C=C/c1ccccc1)N[C@@H](CC1CCCC1)C(=O)N[C@@H](C[C@@H]1CCNC1=O)C(=O)C(=O)NCc1ccccc1` [11u, (S)-N-benzyl-3-((S)-2-cinnamamido-3-cyclopentylpropanamido)-2-oxo-4-((S)-2-oxopyrrolidin-3-yl)butanamide], with 1270 ± 340 nM. Regarding `CC(C)C[C@H](NC(=O)/C=C/c1ccccc1)C(=O)N[C@@H](C[C@@H]1CCNC1=O)C(=O)C(=O)NCc1ccccc1` [11n, (S)-N-((S)-4-(benzylamino)-3,4-dioxo-1-((S)-2-oxopyrrolidin-3-yl)butan-2-yl)-2-cinnamamido-4-methylpentanamide], the IC50 was determined as 330 ± 40 nM. Then `CC(C)(C)OC(=O)N[C@@H](C[C@@H]1CCNC1=O)C(=O)C(=O)NCc1ccccc1` [11f, tert-Butyl ((S)-4-(benzylamino)-3,4-dioxo-1-((S)-2-oxopyrrolidin-3-yl)butan-2-yl)carbamate], with > 50000 nM; and `O=C(/C=C/c1ccccc1)N[C@H](C(=O)N[C@@H](C[C@@H]1CCNC1=O)C(=O)C(=O)NCc1ccccc1)C1CC1` [11q, (S)-N-benzyl-3-((S)-2-cinnamamido-2-cyclopropylacetamido)-2-oxo-4-((S)-2-oxopyrrolidin-3-yl)butanamide], with 6270 ± 2870 nM; and `C#CC[C@H](NC(=O)/C=C/c1ccccc1)C(=O)N[C@@H](C[C@@H]1CCNC1=O)C(=O)C(=O)NCc1ccccc1` [11p, (S)-N-((S)-4-(benzylamino)-3,4-dioxo-1-((S)-2-oxopyrrolidin-3-yl)butan-2-yl)-2-cinnamamidopent-4-ynamide], with 10700 ± 7340 nM.

The compound `O=C(/C=C/c1ccccc1)N[C@@H](CC1CC1)C(=O)N[C@@H](C[C@@H]1CCNC1=O)C(=O)C(=O)NCc1ccccc1` [11s, (S)-N-benzyl-3-((S)-2-cinnamamido-3-cyclopropylpropanamido)-2-oxo-4-((S)-2-oxopyrrolidin-3-yl)butanamide] displayed an IC50 of 240 ± 80 nM.
